Source: patent US7790762B2, “Compounds and methods for thiol-containing compound efflux and cancer treatment” (National Jewish Health, priority 2002, dated 2010)
Where two headings read alike, the source gives them in different places. Marks after values point to notes of the source that are not given here.

Experiments:
epithelial cells = experiment: Effects of compounds on extracellular GSH transport (Table 3); type: cell-based; settings: for activation at 100 µM / activation at 50 µM: Epithelial cell, read-out: % Increase Over Control (extracellular GSH)
A549 cells [1] = experiment: Intracellular GSH levels by HPLC-EC in A549 cells; type: cell-based, human; settings: for activity at 25 µM: Homo sapiens, A549, 25 μM
Method: (§1) Cell lines and culture conditions. Human lung epithelial cancer (A549), human leukemia HL-60 and human prostate (PC-3) tumor cells were purchased from ATCC (Manassas, Va.). A549 and PC-3 cells were grown in Ham's F12 medium (F12) and Kaighn's modification of Ham's F12 medium (F12K) with 2 mM L-glutamine (ATCC), respectively, supplemented with 10% fetal bovine serum (FBS) and 5% pen/strep (10,000 unit, Cellgro). HL-60 cells were grown in Iscove's modified Dulbecco's medium with 4 mM L-glutamine (ATCC) supplemented with 20% FBS and 5% pen/strep. Cell were grown in T-75 flask at 37° C. and 5% CO2 air atmosphere and in 24-well plates for GSH levels and LDH release measurements.
(§2) Intracellular levels of GSH. Intracellular GSH levels can be determined by HPLC-EC. Cultured cells from 24-well plates were washed once with 1 ml of PBS and then re-suspended in 0.5 ml of distilled water with 40 μM of digitonin (2 mM stock solution in DMSO) for 30 min at room temperature. Then, 50 μl of 10% meta-phosphoric acid were added (1% final concentration), the samples were sonicated for 2 min, centrifuged at 20,000 g for 10 min, and 0.2 ml of supernatant placed in vials for HPLC analysis. […] The flow rate was […]. The retention time for GSH in these conditions was 7.5 min. The HPLC instrument was from ESA, Inc. (Chelmsford, Mass.), equipped with an autosampler (model 540) and a Coul array detector (model 5600A). The potential applied was +0.75 V vs. H/Pd electrode, and the injection volume 5 μl.

HL-60 cells [2] = experiment: Intracellular GSH levels by HPLC-EC in HL-60 cells; type: cell-based, human; settings: 24 hours treatment
Method: as §1, §2

A549 cells [3] = experiment: Cytotoxicity as LDH release in A549 cells; type: cell-based, human; settings: A549, 75 μM, 48 hours treatment
Method: as §1
(§3) Assessment of cytotoxicity. In one exemplary method, membrane integrity of A549, HL-60 and PC-3 cells was used as an index of drug-induced cytotoxicity, and was assessed by monitoring the release of cytosolic lactate dehydrogenase (LDH). LDH activity was measured in the culture medium and cell lysates (50 mM HEPES, Triton X-100 0.5%, pH 7) using a plate reader format as previously described (41). Briefly, 5 μl of cell culture supernatant and lysates were incubated with 0.24 mM NADH in a Tris/NaCl pH 7.2 buffer in 96-well plates for 5 min at 25° C. The reaction was started by the addition of 9.8 mM pyruvate and the consumption of NADH followed at 340 nm for 5 min at 30° C. Percent LDH release was calculated by the following: (supernatant LDH/supernatant LDH+lysate LDH)×100.

HL-60 cells [4] = experiment: Cytotoxicity as LDH release in HL-60 cells; type: cell-based, human
Method: as §1, §3

PC-3 cells [5] = experiment: Cytotoxicity as LDH release in PC-3 cells; type: cell-based, human; settings: PC-3, 50 μM, 48 hours treatment
Method: as §1, §3

HL-60 cells [6] = experiment: Cellular superoxide by flow cytometry with hydroethidine in HL-60 cells; type: cell-based, human; settings: HL-60 cells, pre-treated 30 μM for 2 hours (FIG. 21B)
Method: Flow cytometry. In one exemplary method, cellular superoxide (O2^−) was measured by flow cytometry analysis using hydroethidine (HE) (30). Untreated and treated HL-60 cells (approximately 10^6) were exposed to HE (1 μM from 1 mM stock solutions in DMSO) for 30 min, then were centrifuged at 3,500 g for 15 min, and washed once with 1 ml ice-cold PBS. Cells were re-suspended in 0.5 ml ice-cold PBS, and HE oxidation product, i.e., ethidium bromide (EB), analyzed within 30 min using the red channel (PE) of a FACSCalibur flow cytometer from Becton Dickinson Biosciences (San Jose, Calif.). The total number of cell counts was 25,000.

PC-3 cells [7] = experiment: Intracellular GSH levels by HPLC-EC in PC-3 cells; type: cell-based, human; settings: Homo sapiens; PC-3, 25 μM, 24 hours treatment; read-out: Int. GSH % con.
Method: as §1, §2

[8] = Homo sapiens, read-out: LDH rel. % con.

`Nc1ccc(C(=O)O)c(O)c1` [p-Aminosalicylic Acid, 4-amino-2-hydroxybenzoic acid, reference compound] was tested. Which activation at 100 µM (epithelial cells; 100 μM) did it give?
The activation at 100 µM was 414%.

`C[C@@H]1O[C@@H](OC[C@H]2O[C@@H](Oc3c(-c4ccc(O)c(O)c4)oc4cc(O)cc(O)c4c3=O)[C@H](O)[C@@H](O)[C@@H]2O)[C@H](O)[C@H](O)[C@H]1O` [Rutin] was tested. Which “% Increase Over Control (extracellular GSH)” value (epithelial cells; 100 μM) did it give?
The value was 160 ^b %.

What about the “Int. GSH % con.” value (A549 cells [1]; A549, 75 μM, 24 hours treatment) of the same compound?
The value was 86 % con.

And the “Int. GSH % con.” value (HL-60 cells [2]; HL-60, 75 μM)?
Its value is 98 % con.

And the “LDH rel. % con.” value (A549 cells [3])?
The value was 187 % con.

What about the “LDH rel. % con.” value (HL-60 cells [4]; HL-60, 50 μM, 48 hours treatment) of the same compound?
Its value is 98 % con.

What about the “LDH rel. % con.” value (PC-3 cells [5]) of the same compound?
Its value is 95 % con.

How did the activation at 50 µM (epithelial cells) turn out when `O=C(O)c1cc(/N=N/c2ccc(S(=O)(=O)Nc3ccccn3)cc2)ccc1O` [Sulfasalazine, reference compound] was run?
The activation at 50 µM was 211%.

Which activation at 50 µM (epithelial cells) does the source give for `O=C(O)c1cc(S(=O)(=O)O)ccc1O` [5-Sulfosalicylic Acid] here?
Its activation at 50 µM is 142%.

With `CC[n+]1ccccc1-c1c2nc(c(-c3cccc[n+]3CC)c3ccc([n-]3)c(-c3cccc[n+]3CC)c3nc(c(-c4cccc[n+]4CC)c4ccc1[n-]4)C=C3)C=C2.[Mn+3]` [MnTE-2-PyP, Manganese(III) meso-tetrakis(N-ethylpyridinium-2-yl)porphyrin, reference compound] as the compound, how does the “effect on the toxicity of curcumin (25 μM), LDH release” value (HL-60 cells [4]; HL-60 cells, 48 hours, compound 25 μM (FIG. 20A)) read?
Its value is “attenuated”.

What about the “O2^− levels induced by curcumin after pre-treatment” value (HL-60 cells [6]) of the same compound?
The value was “lower levels of O2^− were detected”.

For `COc1ccccc1C(=O)O` [Methylsalicylic Acid], which activation at 100 µM (epithelial cells; 100 μM) is on record?
Its activation at 100 µM is 169%.

With `CCCOC(=O)c1cc(O)c(O)c(O)c1` [Propyl Gallate, 3,4,5-trihydroxy-benzoic acid propyl ester] as the compound, how does the activation at 50 µM (epithelial cells) read?
The activation at 50 µM was 136%.

Which activation at 100 µM (epithelial cells; 100 μM) does the source give for `COc1ccc2cc3[n+](cc2c1OC)CCc1cc2c(cc1-3)OCO2` [Berberine] here?
Its activation at 100 µM is 170%.

With `O=c1cc(-c2ccccc2)oc2cc(O)ccc12` [7-HF, 7-Hydroxyflavone] as the compound, how does the “effect on intracellular GSH (words)” value (A549 cells [1]; A549 cells) read?
Its value is “almost as effective as chrysin”.

What about the activity at 25 µM (A549 cells [1]; 2 h, read-out: Intracellular GSH levels, % compared to control) of the same compound?
Its activity at 25 µM is 58.1 ± 1.4%.

What about the activity at 25 µM (A549 cells [1]; 24 hours treatment, read-out: Int. GSH % con.) of the same compound?
Its activity at 25 µM is less than 5%.

And the activity at 50 µM (HL-60 cells [2]; Homo sapiens, HL-60, 50 μM, read-out: Int. GSH % con.)?
Its activity at 50 µM is 56%.

And the activity at 25 µM (PC-3 cells [7])?
Its activity at 25 µM is 63%.

And the LDH release, % of control at 75 µM (A549 cells [3]; [8])?
Its LDH release, % of control at 75 µM is 113%.

And the LDH release, % of control at 50 µM (HL-60 cells [4]; Homo sapiens, HL-60, 50 μM, 48 hours treatment, read-out: LDH rel. % con.)?
The LDH release, % of control at 50 µM was 113%.

And the LDH release, % of control at 50 µM (PC-3 cells [5]; [8])?
The LDH release, % of control at 50 µM was 96%.
